Where two headings read alike, the source gives them in different places.
How the values were obtained:
B16F10 cells [1] = test: Melanin content assay (IBMX-stimulated); type: cell-based, murine; conditions: for activity at 20 µM: Mus musculus
tyrosinase = conditions: cited from earlier work
B16F10 cells [2] = test: MTT cell viability assay; conditions: for MTT (%): 20 µM, mean ± SD, triplicate
mushroom tyrosinase [3] = molecular target: T1, mushroom tyrosinase (Agaricus bisporus, UniProt C7FF04); test: Mushroom tyrosinase enzyme activity inhibition assay; type: biochemical; conditions: for LE (ligand efficiency): 1.4 × (−log10IC50)/N, N = number of non-hydrogen atoms; for inhibition of tyrosinase (in words): at 300 μM; for inhibition of tyrosinase enzyme activity (in words): concentration-dependent profiles, urea, thiourea, selenourea compared without DMSO
T1 sequence (C7FF04 1-392): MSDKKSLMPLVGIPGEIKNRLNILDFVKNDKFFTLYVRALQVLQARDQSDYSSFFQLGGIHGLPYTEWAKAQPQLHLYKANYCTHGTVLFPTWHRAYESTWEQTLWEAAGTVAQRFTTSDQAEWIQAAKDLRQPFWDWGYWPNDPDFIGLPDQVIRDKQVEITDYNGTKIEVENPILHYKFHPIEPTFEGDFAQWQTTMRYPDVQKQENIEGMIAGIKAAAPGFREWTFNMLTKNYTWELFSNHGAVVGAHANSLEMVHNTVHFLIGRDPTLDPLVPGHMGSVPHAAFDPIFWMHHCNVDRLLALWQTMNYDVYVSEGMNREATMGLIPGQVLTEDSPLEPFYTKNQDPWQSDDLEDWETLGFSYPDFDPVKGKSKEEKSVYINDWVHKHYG

mushroom tyrosinase [4] = molecular target: T1, mushroom tyrosinase; test: Kinetics of enzyme inhibition (Michaelis-Menten, nonlinear fitting, F-statistics); type: biochemical; conditions: for Mechanism: model selected by F-statistics among competitive, uncompetitive, non-competitive, mixed
mammalian tyrosinase = molecular target: T2, mammalian tyrosinase (Mus musculus, UniProt P11344); test: Tyrosinase enzyme assay with B16F10 cell lysates; type: biochemical, murine; conditions: for Cell Lysate (%): B16F10 cell lysates, DOPA substrate, absence of inhibitor = 100%; for inhibition of mammalian tyrosinase (in words): cell extracts of B16F10 cells
T2 construct: host or cells: B16F10 murine melanoma cells (lysate supernatant)
T2 sequence (P11344 19-533): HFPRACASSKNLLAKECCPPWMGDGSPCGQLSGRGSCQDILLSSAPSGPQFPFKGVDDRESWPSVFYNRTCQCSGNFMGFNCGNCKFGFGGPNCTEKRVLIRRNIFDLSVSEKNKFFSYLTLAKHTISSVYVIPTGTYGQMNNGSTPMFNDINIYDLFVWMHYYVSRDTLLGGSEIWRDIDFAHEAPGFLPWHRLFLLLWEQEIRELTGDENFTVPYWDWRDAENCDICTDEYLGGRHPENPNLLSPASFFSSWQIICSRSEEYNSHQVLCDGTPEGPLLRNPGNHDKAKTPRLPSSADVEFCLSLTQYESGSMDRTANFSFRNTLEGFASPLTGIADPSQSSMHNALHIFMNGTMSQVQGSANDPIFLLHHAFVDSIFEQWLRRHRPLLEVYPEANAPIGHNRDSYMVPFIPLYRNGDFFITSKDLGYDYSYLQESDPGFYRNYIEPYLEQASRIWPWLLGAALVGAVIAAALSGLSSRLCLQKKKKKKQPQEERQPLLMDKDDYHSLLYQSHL

[5] = 20 μM, B16F10 cells, IBMX 100 μM
[6] = B16-F10, 20 µM, B16F10 cells, IBMX 100 μM, absence of inhibitor = 100%, read-out: Melanin Content (%)
[7] = BindingDB-registered value, read-out: IC50 of closest known inhibitor
[8] = mushroom tyrosinase, 675 μM L-tyrosine as substrate, 5% DMSO, read-out: IC50
[9] = Ki for competitive, Kic for non-competitive model, nonlinear data fitting, read-out: Ki or Kic

Question: What does the source list for `O=c1cc(CO)occ1O` [compound 2, Kojic acid]?
Answer: decrease of melanin content (B16F10 cells [1]; [5]): < 5%; activity at 20 µM (B16F10 cells [1]; [6]): 108 ± 11%; inhibition mechanism (reported) (tyrosinase): competitive inhibitors; MTT (%) (B16F10 cells [2]): 114 ± 10%

Question: For `CCCc1cc(=O)[nH]c(=S)[nH]1` [compound 9, Propylthiouracil], which activity at 20 µM (B16F10 cells [1]; [6]) is on record?
Answer: 102 ± 10%

Question: And the IC50 (mushroom tyrosinase [3])?
Answer: 375 µM

Question: What about the Ki (mushroom tyrosinase [4]) of the same molecule?
Answer: 196 µM

Question: What about the Mechanism (mushroom tyrosinase [4]) of the same molecule?
Answer: Non-competitive

Question: What about the “MTT (%)” value (B16F10 cells [2]) of the same molecule?
Answer: 102 ± 12%

Question: And the “Cell Lysate (%)” value (mammalian tyrosinase)?
Answer: 77 ± 9%

Question: What about the “inhibition of mammalian tyrosinase (in words)” value (mammalian tyrosinase) of the same molecule?
Answer: significantly inhibited the function of tyrosinase

Question: Which IC50 (tyrosinase; [7]) does the source give for `NC(=S)NN=Cc1ccc(F)cc1` [C00010, 4-fluorobenzaldehyde thiosemicarbazone] here?
Answer: 11 µM

Question: Which IC50 (tyrosinase; [7]) does the source give for `NC(=S)NN=C1CCCC1` [C00011, cyclopentanone thiosemicarbazone] here?
Answer: 0.17 µM

Question: Which Ki (tyrosinase; BindingDB-registered value, column headed IC50, footnote says Ki, read-out: Ki of closest known inhibitor) does the source give for `Nn1c(-c2ccncc2)n[nH]c1=S` [C00012] here?
Answer: 1 µM

Question: What does the source list for `N=C(N)NN=C1C=CC(=NNC(N)=S)C=C1` [compound 4, Ambazone]?
Answer: effect on melanin content (in words) (B16F10 cells [1]; 20 μM, B16F10 cells): decreased melanin content; decrease of melanin content (B16F10 cells [1]; [5]): 20%; activity at 20 µM (B16F10 cells [1]; [6]): 80 ± 11%; IC50 (mushroom tyrosinase [3]): 15 µM; LE (ligand efficiency) (mushroom tyrosinase [3]): 0.42; Ki (mushroom tyrosinase [4]): 9 µM; Mechanism (mushroom tyrosinase [4]): Non-competitive; MTT (%) (B16F10 cells [2]): 95 ± 12%; cytotoxicity (in words) (B16F10 cells [2]; up to 20 μM): without causing cellular toxicity; Cell Lysate (%) (mammalian tyrosinase): 87 ± 9%; inhibition of mammalian tyrosinase (in words) (mammalian tyrosinase): significantly inhibited the function of tyrosinase

Question: What does the source list for `CN(C)C(=S)N(C)C` [tetramethylthiourea]?
Answer: inhibition of tyrosinase (in words) (mushroom tyrosinase [3]): hardly inhibited tyrosinase; inhibition of tyrosinase enzyme activity (in words) (mushroom tyrosinase [3]): much weaker than thiourea

Question: With `CC(=O)Nc1ccc(/C=N/NC(N)=S)cc1` [compound 3, Thioacetazone] as the molecule, how does the activity at 20 µM (B16F10 cells [1]; [6]) read?
Answer: 102 ± 10%

Question: What about the IC50 (mushroom tyrosinase [3]) of the same molecule?
Answer: 14 µM

Question: And the “LE (ligand efficiency)” value (mushroom tyrosinase [3])?
Answer: 0.43

Question: And the Ki (mushroom tyrosinase [4])?
Answer: 18 µM

Question: And the Mechanism (mushroom tyrosinase [4])?
Answer: Non-competitive

Question: What about the “MTT (%)” value (B16F10 cells [2]) of the same molecule?
Answer: 95 ± 15%

Question: And the “Cell Lysate (%)” value (mammalian tyrosinase)?
Answer: 74 ± 7%

Question: What about the “inhibition of mammalian tyrosinase (in words)” value (mammalian tyrosinase) of the same molecule?
Answer: significantly inhibited the function of tyrosinase

Question: For `CNC(=S)N(C)C` [trimethylthiourea], which “inhibition of tyrosinase (in words)” value (mushroom tyrosinase [3]) is on record?
Answer: hardly inhibited tyrosinase

Question: And the “inhibition of tyrosinase enzyme activity (in words)” value (mushroom tyrosinase [3])?
Answer: much weaker than thiourea

Question: Which activity at 20 µM (B16F10 cells [1]; [6]) does the source give for `O=c1cc[nH]c(=S)[nH]1` [compound 7, Thiouracil] here?
Answer: 106 ± 14%

Question: What about the IC50 (mushroom tyrosinase [3]) of the same molecule?
Answer: 215 µM

Question: And the “LE (ligand efficiency)” value (mushroom tyrosinase [3])?
Answer: 0.64

Question: What about the Mechanism (mushroom tyrosinase [4]) of the same molecule?
Answer: Non-competitive

Question: And the “MTT (%)” value (B16F10 cells [2])?
Answer: 99 ± 10%

Question: What about the “Cell Lysate (%)” value (mammalian tyrosinase) of the same molecule?
Answer: 79 ± 9%

Question: And the “inhibition of mammalian tyrosinase (in words)” value (mammalian tyrosinase)?
Answer: significantly inhibited the function of tyrosinase

Question: For `CCCCOCCOc1ccc(Cc2c(O)[nH]c(=S)[nH]c2=O)cc1` [C00014], which IC50 (tyrosinase; [7]) is on record?
Answer: 179 µM

Question: Which “inhibition of tyrosinase (in words)” value (mushroom tyrosinase [3]) does the source give for `CNC(=S)NC` [dimethylthiourea] here?
Answer: hardly inhibited tyrosinase

Question: What about the “inhibition of tyrosinase enzyme activity (in words)” value (mushroom tyrosinase [3]) of the same molecule?
Answer: much weaker than thiourea

Question: For `NC(=S)Nc1ccccc1` [compound 1, Phenylthiourea], which “decrease of melanin content” value (B16F10 cells [1]; [5]) is on record?
Answer: 40%

Question: What about the activity at 20 µM (B16F10 cells [1]; B16-F10, read-out: Melanin Content (%)) of the same molecule?
Answer: 59 ± 7%

Question: What about the “inhibition mechanism (reported)” value (tyrosinase) of the same molecule?
Answer: competitive inhibitors

Question: What about the Mechanism (mushroom tyrosinase [4]) of the same molecule?
Answer: Competitive

Question: And the Mechanism (mushroom tyrosinase [4]; listed as PTU)?
Answer: competitive inhibitors

Question: And the “MTT (%)” value (B16F10 cells [2])?
Answer: 113 ± 10%

Question: What about the “Cell Lysate (%)” value (mammalian tyrosinase) of the same molecule?
Answer: 5 ± 1%

Question: What does the source list for `CCOC(=O)n1ccn(C)c1=S` [compound 6, Carbimazole]?
Answer: inhibition of tyrosinase enzyme activity (in words) (mushroom tyrosinase [3]): did not inhibit tyrosinase; IC50 (mushroom tyrosinase [3]; [8]): > 2000 µM

Question: For `CNC(N)=S` [monomethylthiourea], which “inhibition of tyrosinase enzyme activity (in words)” value (mushroom tyrosinase [3]) is on record?
Answer: much weaker than thiourea

Question: With `NC(N)=S` [thiourea] as the molecule, how does the “inhibition of tyrosinase enzyme activity (in words)” value (mushroom tyrosinase [3]) read?
Answer: decreased tyrosinase enzyme activity in a concentration dependent manner

Question: For `NNC(N)=S` [thiosemicarbazide], which “inhibition of tyrosinase enzyme activity (in words)” value (mushroom tyrosinase [3]) is on record?
Answer: much weaker than thiourea

Question: For `O=c1[nH]c(=S)[nH]c(O)c1Cc1ccc(O)cc1` [C00013], which IC50 (tyrosinase; [7]) is on record?
Answer: 70 µM

Question: What about the IC50 (tyrosinase; known tyrosinase inhibitor, read-out: IC50) of the same molecule?
Answer: 70 µM

Question: For `N=C(N)[SeH]` [selenourea], which “inhibition of tyrosinase enzyme activity (in words)” value (mushroom tyrosinase [3]) is on record?
Answer: no effect on activity

Question: What does the source list for `Cc1cc(=O)[nH]c(=S)[nH]1` [compound 8, Methylthiouracil]?
Answer: activity at 20 µM (B16F10 cells [1]; [6]): 102 ± 14%; LE (ligand efficiency) (mushroom tyrosinase [3]): 0.56; IC50 (mushroom tyrosinase [3]; [8]): 266 µM; Ki (mushroom tyrosinase [4]; [9]): 170 µM; Mechanism (mushroom tyrosinase [4]): Non-competitive; MTT (%) (B16F10 cells [2]): 108 ± 10%; Cell Lysate (%) (mammalian tyrosinase): 78 ± 10%; inhibition of mammalian tyrosinase (in words) (mammalian tyrosinase): significantly inhibited the function of tyrosinase

Question: Which “inhibition of tyrosinase enzyme activity (in words)” value (mushroom tyrosinase [3]) does the source give for `NC(N)=O` [urea] here?
Answer: no effect on activity

Question: For `Cn1cc[nH]c1=S` [compound 5, Methimazole], which activity at 20 µM (B16F10 cells [1]; [6]) is on record?
Answer: 104 ± 12%

Question: What about the “inhibition mechanism (reported)” value (tyrosinase) of the same molecule?
Answer: mixed inhibitor

Question: What about the IC50 (mushroom tyrosinase [3]; [8]) of the same molecule?
Answer: 94 µM

Question: And the Ki (mushroom tyrosinase [4]; [9])?
Answer: 73 µM

Question: What about the Mechanism (mushroom tyrosinase [4]) of the same molecule?
Answer: Non-competitive

Question: And the Mechanism (mushroom tyrosinase [4]; listed as methimazole)?
Answer: non-competitive inhibitor

Question: And the “MTT (%)” value (B16F10 cells [2])?
Answer: 100 ± 9%

Question: What about the “Cell Lysate (%)” value (mammalian tyrosinase) of the same molecule?
Answer: 93 ± 10%

Question: What about the “inhibition of mammalian tyrosinase (in words)” value (mammalian tyrosinase) of the same molecule?
Answer: limited

— PMC4691061, “Repositioning of Thiourea-Containing Drugs as Tyrosinase Inhibitors” (International Journal of Molecular Sciences, 2015)
